Patent US4476122A, “Alkyloximes of 7-amino-thiazolyl-acetamido-cephalosporanic acids” (Roussel Uclaf, priority 1976, dated 1984)
Read-outs that look alike come from different tables or passages of the source.

Assays:
[1] = test system: Pathogenic white Staphylococcus 69 396; assay: MIC, liquid medium dilution; type: cell-based
Method: (§1) The method used was a dilution of a liquid medium where a series of tubes received the same quantity of a sterile nutritive media and increasing doses of the test compounds were placed therein. Then each tube was seeded with a bacterial strain and was incubated for 24 or 48 hours at 37° C. in an oven. The increasing inhibition was determined by transillumination to determine the minimum inhibiting concentration (MIC in μg/ml) and the results are reported in the following Tables.

Escherichia Coli 69 886 = assay: MIC, liquid medium dilution; type: cell-based
Method: as §1

[2] = test system: Golden Staphylococcus 68 666; assay: MIC, liquid medium dilution; type: cell-based
Method: as §1

Escherichia Coli 69 916 = assay: MIC, liquid medium dilution; type: cell-based
Method: as §1

Escherichia Coli 72 806 = assay: MIC, liquid medium dilution; type: cell-based
Method: as §1

Escherichia Coli 19 976 = assay: MIC, liquid medium dilution; type: cell-based
Method: as §1

Escherichia Coli 68 696 = assay: MIC, liquid medium dilution; type: cell-based
Method: as §1

Escherichia Coli 68 956 = assay: MIC, liquid medium dilution; type: cell-based
Method: as §1

Escherichia Coli 73 316 = assay: MIC, liquid medium dilution; type: cell-based
Method: as §1

[3] = test system: White Staphylococcus 21 976; assay: MIC, liquid medium dilution; type: cell-based
Method: as §1

Escherichia Coli 21 976 = assay: MIC, liquid medium dilution; type: cell-based
Method: as §1

[4] = test system: Klebsiella pneumonia 52,145; assay: Experimental infection with Klebsiella pneumonia in mice (D); type: in vivo
Method: The activity of the products of Examples 19 and 21 was studied on an experimental infection of Klebsiella pneumonia in mice. Groups of 10 male mice weighing 21.5 g received intraperitoneally 0.5 ml of a 24 hour culture in nutritive media of Klebsiella pneumonia 52,145 diluted by 1/1000 with distilled water. The products were administered subcutaneously 1,5 and 24 hours after the injection and the number of dead mice were determined using 10th days.

[5] = Hygroscopicity of the crystalline salt; type: physicochemical; details: microcrystalline sodium salt

CO/N=C(\C(=O)NC1C(=O)N2C(C(=O)O)=C(CSC(C)=O)CSC12)c1csc(N)n1 (stereo not drawn) [Example 21, sodium 3-acetylthiomethyl-7-[{2-(2-amino-4-thiazolyl)-2-methoxyiminoacetyl}amino]-ceph-3-eme-4-carboxylate]
MIC ([1]; 24 h): 2 µg/mL | MIC ([1]; 48 h): 2 µg/mL | MIC (Escherichia Coli 69 886; COLI69886, 24 h, read-out: MIC): 0.6 µg/mL | MIC (Escherichia Coli 69 886; COLI69886, 48 h): 1 µg/mL | MIC ([2]; 24 h): 3 µg/mL | MIC ([2]; 48 h): 5 µg/mL | MIC (Escherichia Coli 69 916; COLI69916, 24 h): 0.4 µg/mL | MIC (Escherichia Coli 69 916; COLI69916, 48 h): 0.4 µg/mL | MIC (Escherichia Coli 72 806; COLI72806, 24 h): 1 µg/mL | MIC (Escherichia Coli 72 806; COLI72806, 48 h): 1 µg/mL | MIC (Escherichia Coli 19 976; COLI19976, 24 h, read-out: MIC): 0.6 µg/mL | MIC (Escherichia Coli 19 976; COLI19976, 48 h): 0.6 µg/mL | MIC (Escherichia Coli 68 696; COLI68696, 24 h): 0.4 µg/mL | MIC (Escherichia Coli 68 696; COLI68696, 48 h): 0.4 µg/mL | MIC (Escherichia Coli 68 956; COLI68956, 24 h): 0.4 µg/mL | MIC (Escherichia Coli 68 956; COLI68956, 48 h): 0.4 µg/mL | MIC (Escherichia Coli 73 316; COLI73316, 24 h): 0.2 µg/mL | MIC (Escherichia Coli 73 316; COLI73316, 48 h): 0.2 µg/mL | MIC ([3]; 24 h): 3 µg/mL | MIC ([3]; 48 h): 5 µg/mL | MIC (Escherichia Coli 21 976; COLI21976, 24 h, read-out: MIC): 0.6 µg/mL | MIC (Escherichia Coli 21 976; COLI21976, 48 h): 0.6 µg/mL | Mice alive on the 10th day ([4]; subcutaneous, 0,1 mg): 9/10 | Mortality after 4eJ (number of dead of 10) ([4]; subcutaneous, 0,1 mg): 1 | Mice alive on the 10th day ([4]; subcutaneous, 0,05 mg): 9/10 | Mortality after 73H 15 (number of dead of 10) ([4]; subcutaneous, 0,05 mg): 1 | Mice alive on the 10th day ([4]; subcutaneous, 0,5 mg): 10/10 | Mice alive on the 10th day ([4]; subcutaneous, 0,25 mg): 10/10 | Mice alive on the 10th day ([4]; subcutaneous, 1 mg): 10/10

CO/N=C(\C(=O)NC1C(=O)N2C(C(=O)O)=C(CSC(C)=O)CSC12)c1csc(N)n1 (stereo not drawn) [Example 22, sodium 3-acetylthiomethyl-7-[{2-(2-amino-4-thiazolyl)-2-methoxyiminoacetyl}amino]-ceph-3-eme-4-carboxylate]
hygroscopicity [5]: non-hydroscopic
